{"source": "patent US6984520B1", "about": "“Bioassay for thyroid stimulating antibodies” (University of Wales College of Medicine, priority 1997, dated 2006)", "key": {"human TSH-R [1]": {"molecular_target": "T1, human TSH-R (Homo sapiens, UniProt P16473)", "T1 construct": "a pSVL vector containing the coding region of human TSH-R; expressed in transfected cells; host or cells: CHO-K1 clone JP09 (pSVL-hTSHR), further transfected with cAMP-luciferase to give lulu 1 cells", "T1 sequence (P16473 21-764)": "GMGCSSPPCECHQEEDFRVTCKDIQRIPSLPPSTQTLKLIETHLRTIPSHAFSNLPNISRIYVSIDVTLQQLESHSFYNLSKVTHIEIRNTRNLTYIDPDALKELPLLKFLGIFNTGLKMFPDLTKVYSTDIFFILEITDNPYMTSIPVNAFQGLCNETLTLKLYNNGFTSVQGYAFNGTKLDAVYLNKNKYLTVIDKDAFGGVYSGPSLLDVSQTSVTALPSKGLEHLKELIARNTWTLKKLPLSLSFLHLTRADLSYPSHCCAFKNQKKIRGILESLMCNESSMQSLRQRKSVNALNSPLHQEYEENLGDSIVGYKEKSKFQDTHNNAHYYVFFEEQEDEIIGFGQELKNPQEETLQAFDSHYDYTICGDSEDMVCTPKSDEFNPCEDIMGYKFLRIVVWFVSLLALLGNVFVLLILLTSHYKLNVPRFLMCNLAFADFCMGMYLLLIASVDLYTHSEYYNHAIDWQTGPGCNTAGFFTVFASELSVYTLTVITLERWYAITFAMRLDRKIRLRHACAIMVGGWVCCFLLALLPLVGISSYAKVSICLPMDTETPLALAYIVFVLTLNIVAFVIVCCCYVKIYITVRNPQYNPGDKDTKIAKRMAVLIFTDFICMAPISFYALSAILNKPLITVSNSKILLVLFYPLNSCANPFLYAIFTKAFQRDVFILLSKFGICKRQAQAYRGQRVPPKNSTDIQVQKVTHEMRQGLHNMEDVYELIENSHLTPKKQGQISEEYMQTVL", "assay": "traditional bioassay: cAMP released into culture medium of lulu 1 cells, measured by RIA", "format": "cell-based", "settings": "NaCl-free Hank's medium, 2 mM IBMX, TSH 1 mU/ml, TSAb (90/672) 10 mlU/ml", "protocol": "44 of the GD sera described above, (35 TBII (TSH-R) positive) and the TSAb standard, were also assayed in a traditional bioassay in which CAMP released into the culture medium was measured by RIA. Lulu 1 were seeded in 96 well plates and the assay was performed in 100 μl/well NaCl-free Hank's medium, containing 2 mM IBMX and 10 μl individual GD or pooled euthyroid serum. CAMP was measured by the CAMP [^3H] assay system (Amersham) as described by Ludgate et al in Exp Clin Endo 100 73–4."}, "human TSH-R [2]": {"molecular_target": "T1, human TSH-R", "assay": "luminescent bioassay: light output of lulu 1 cells (JP09 CHO cells expressing human TSH-R, transfected with cAMP-luciferase)", "format": "cell-based", "settings": "concentration as in row: TSH 1 mU/ml, TSAb (90/672) 10 mlU/ml, Forskolin 10^-5M", "protocol": "Culture medium for the cells was RPMI; 10% foetal calf serum (FCS); 1% glutamine; 1% pyruvate; 2% penicillin/streptomycin (and 2.5 μg/ml puromycin, when amplifying cells for assay). 96 well plates were seeded with 5×10^4 cells prepared according to Example 1 and cultured overnight (approximately 16 hours) at 37° C. in a water-saturated incubator. They were then cultured for a second night in medium containing 10% charcoal stripped calf serum instead of FCS (available from Gibco). Basal light output was measured, in triplicate wells, in the presence of 100 μl of the medium containing 10% charcoal stripped serum. […] The final result was expressed as relative light units (RLU) obtained by the ratio of standard:basal or test:basal.\nFollowing the incubation period, supernatants were removed from the wells and the cells are washed twice in phosphate buffered saline. Light output was measured using a commercially-available kit from the Promega Corporation, no. […]\nThe selected clones were cultured overnight in medium with 10% charcoal-stripped calf serum (Sigma) in place of FCS, followed by 4 hours' incubation with varying concentrations of bovine TSH. Light output was measured by luciferase reporter assay (Promega) in a Berthold luminometer. Results were calculated as the ratio of light output in the presence of TSH:light output in the absence of TSH and expressed as relative light units (RLUs). […]"}}, "data": [{"substance": "thyrotropin [TSH]", "values": [{"measurement": "pmole cAMP (mean, n=2)", "setting": "human TSH-R [1]", "result": 9.4, "unit": "pmol"}, {"measurement": "RLUs (mean luminometer readings (n=3) with background light emission subtracted)", "setting": "human TSH-R [2]", "result": 1293, "unit": "RLUs"}]}]}
